Columns and labels:
human PHD2 [1] = biological target: T1, human PHD2 (Homo sapiens (Human), UniProt Q9GZT9); test: Test 1: human PHD2 inhibitory activity, [14C]-2-oxoglutarate to [14C]-succinic acid radiometric assay with HIF-1α peptide; assay type: biochemical; settings: test compound's concentration 1 μM; Test 1, [14C]-2-oxoglutarate radiometric assay; read-out: Percent inhibition (% at 1 μM)
Description: (1) Expression and Preparation of Human PHD2
Human PHD2 was expressed in insect cells (HighFive cells). A registered sequence of human PHD2 (NM_022051) was introduced into the pFastBacl vector (Invitrogen), and the sequence was verified. The vector was introduced into Sf9 insect cells (Invitrogen) to acquire human PHD2 baculovirus. HighFive insect cells (Invitrogen) were infected with this recombinant virus and cultured at 27° C. for 72 hours; thereafter, a cell lysis solution containing various protease inhibitors was added and the cells were disrupted to form a suspension. The suspension of disrupted cells was centrifuged at 4° C. and 100,000×g for 30 minutes and the supernatant was recovered as a cell lysate.
(2) Measurement of Human PHD2 Inhibitory Activity
The activity of human PHD2 enzyme was measured with a substrate which is a 19-residue partial peptide based on the sequence of HIF-1α. Specifically, the conversion of 2-oxoglutarate to succinic acid which would occur simultaneously with the hydroxylation of a proline residue in the peptide with the PHD2 enzyme was utilized. To be more specific, [^14C]-2-oxogiutarate was added to the reaction system to initiate an enzymatic reaction and the [^14C]-2-oxoglutarate remaining after the reaction was bound to 2,4-dinitrophenylhydrazine (DNPH), with the resulting precipitate being removed by passage through a filter. Subsequently, radiation counting was conducted on the resulting [^14C]-succinic acid.
A test compound, HIF-1αpeptide and [^14C]-2-oxoglutarate were preliminarily added onto 96-well plates and reaction was initiated by adding a human PHD2 enzyme solution (4 μg/well). After 15-min incubation at 37° C., a DNPH-containing quench solution was added and the mixture was allowed to stand at room temperature for 30 minutes. Thereafter, an excess of non-radiolabelled 2-oxoglutarate was added and the mixture was allowed to stand at room temperature for 60 minutes. The resulting precipitate was removed by passage through a filter and the radiation count on the [^14C]-succinic acid was quantified (with MicroBeta). Radiation counting was conducted for each well and the human PHD2 inhibitory activity of each test compound was calculated on the basis of the values for the substrate-free group and the test compound-free group.

human PHD2 [2] = biological target: T1, human PHD2; test: Test 2: human PHD2 inhibitory activity, fluorescence polarization assay of HIF-1α peptide proline hydroxylation; assay type: biochemical; settings: test compound's concentration 1 μM; Test 2, fluorescence polarization assay; read-out: Percent inhibition (% at 1 μM)
Procedure, shortened: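 Enzyme from lysate of cells expressing human PHD2 (NM_022051), 40 ng/well, added to compound and 19-residue HIF-1α peptide substrate; 20 min at 30° C., EDTA quench. Prolyl hydroxylation detected by HIF-OH antibody binding via fluorescence polarization; inhibition relative to compound-free wells.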

T1 sequence (Q9GZT9 whole entry): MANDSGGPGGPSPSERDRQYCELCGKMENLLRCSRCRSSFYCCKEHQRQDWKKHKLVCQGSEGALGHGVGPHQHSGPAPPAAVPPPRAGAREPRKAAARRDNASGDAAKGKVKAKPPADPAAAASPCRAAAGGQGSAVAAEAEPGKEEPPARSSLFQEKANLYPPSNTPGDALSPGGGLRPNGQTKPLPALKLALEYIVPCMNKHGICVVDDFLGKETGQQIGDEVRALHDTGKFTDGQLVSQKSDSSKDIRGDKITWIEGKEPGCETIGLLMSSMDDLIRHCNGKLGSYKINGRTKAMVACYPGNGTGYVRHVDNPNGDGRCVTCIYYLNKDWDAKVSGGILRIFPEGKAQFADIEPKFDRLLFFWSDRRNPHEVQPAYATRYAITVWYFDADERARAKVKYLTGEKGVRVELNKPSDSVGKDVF

Row | SMILES | inhibition at 1 µM (human PHD2 [1]) | inhibition at 1 µM (human PHD2 [2])
1 | O=C(O)CNC(=O)C1=C(O)C2(CCOCC2)CN(Cc2ccc(-c3ccc(C(F)(F)F)cc3)cc2)C1=O [Ex. 1-119] | 85% | 84%
2 | O=C(O)CNC(=O)C1=C(O)CCN(Cc2ccc(C(F)(F)F)c(C(F)(F)F)c2)C1=O [Ex. 1-120] | 69% | 82%
3 | Cc1ccc(CN2C(=O)C(C(=O)NCC(=O)O)=C(O)CC23CCC3)cc1 [Ex. 1-121] | 66% | 71%
4 | O=C(O)CNC(=O)C1=C(O)CC2(CCC2)N(Cc2ccc(C(F)(F)F)cc2)C1=O [Ex. 1-122] | 65% | 76%
5 | O=C(O)CNC(=O)C1=C(O)CC2(COC2)N(Cc2cnc(-c3ccccc3)s2)C1=O [Ex. 1-123] | 90% | 93%
6 | O=C(O)CNC(=O)C1=C(O)CC2(COC2)N(Cc2ccc(C(F)(F)F)cc2)C1=O [Ex. 1-124] | 72% | 79%
7 | O=C(O)CNC(=O)C1=C(O)CCN(Cc2ccc(-c3ccccc3)c(F)c2)C1=O [Ex. 1-125] | 98% | 97%
8 | O=C(O)CNC(=O)C1=C(O)CCN(Cc2ccc(-c3ccc(F)cc3)cc2F)C1=O [Ex. 1-126] | 97% | 98%
9 | O=C(O)CNC(=O)C1=C(O)CCN(Cc2ccc(-c3ccccc3)cc2F)C1=O [Ex. 1-127] | 92% | 95%
10 | O=C(O)CNC(=O)C1=C(O)CCN(Cc2ccc(C(F)(F)F)c(Cl)c2)C1=O [Ex. 1-128] | 88% | 84%
11 | Cc1ccc(CN2CCC(O)=C(C(=O)NCC(=O)O)C2=O)cc1C(F)(F)F [Ex. 1-129] | 71% | 80%
12 | O=C(O)CNC(=O)C1=C(O)CC2(CCC2)N(Cc2ccc(-c3ccccn3)cc2)C1=O [Ex. 1-130] | 89% | 90%
13 | O=C(O)CNC(=O)C1=C(O)CC2(CCC2)N(Cc2cnc(-c3ccccc3)s2)C1=O [Ex. 1-131] | 93% | 96%
14 | O=C(O)CNC(=O)C1=C(O)CC2(COC2)N(CC2CCC(c3ccccc3)CC2)C1=O (stereo not shown) [Ex. 1-132] | 103% | 94%
15 | O=C(O)CNC(=O)C1=C(O)CC2(COC2)N(Cc2ccc(-c3ccc(C(F)(F)F)cc3)cc2)C1=O [Ex. 1-133] | 104% | 97%
16 | O=C(O)CNC(=O)C1=C(O)CCN(Cc2ccc(C(F)(F)F)c(F)c2F)C1=O [Ex. 1-134] | 86% | 85%
17 | O=C(O)CNC(=O)C1=C(O)CCN(Cc2c(F)cc(C(F)(F)F)cc2F)C1=O [Ex. 1-135] | 78% | 78%
18 | O=C(O)CNC(=O)C1=C(O)CCN(Cc2ccc(OC(F)(F)C(F)F)cc2)C1=O [Ex. 1-136] | 91% | 88%
19 | O=C(O)CNC(=O)C1=C(O)CC2(CCC2)N(CC2CCC(c3ccccc3)CC2)C1=O (stereo not shown) [Ex. 1-137] | 78% | 92%
20 | CC(C)(C)c1ccc(-c2ccc(CN3C(=O)C(C(=O)NCC(=O)O)=C(O)CC34COC4)cc2)cc1 [Ex. 1-138] | 83% | 97%
21 | O=C(O)CNC(=O)C1=C(O)CCN(Cc2ccc(F)cc2)C1=O [Ex. 1-139] | 72% | 78%
22 | O=C(O)CNC(=O)C1=C(O)CCN(Cc2ccc(C(F)(F)C(F)(F)F)cc2)C1=O [Ex. 1-140] | 79% | 85%
23 | O=C(O)CNC(=O)C1=C(O)CC2(CCCCC2)N(Cc2ccc(C(F)(F)F)nc2)C1=O [Ex. 1-141] | 64% | 62%
24 | O=C(O)CNC(=O)C1=C(O)CC2(CCCCC2)N(Cc2ccc(C(F)(F)F)cn2)C1=O [Ex. 1-142] | 54% | 52%
25 | O=C(O)CNC(=O)C1=C(O)C2CCCCC2N(Cc2ccc(C(F)(F)F)cc2)C1=O (stereo not shown) [Ex. 1-143] | 41% | 65%
26 | CC1CN(Cc2ccc(Br)cc2)C(=O)C(C(=O)NCC(=O)O)=C1O (stereo not shown) [Ex. 1-144] | 76% | 85%
27 | O=C(O)CNC(=O)C1=C(O)CCN(Cc2ccc(Br)cc2F)C1=O [Ex. 1-145] | 88% | 83%

Row | SMILES | inhibition at 1 µM (human PHD2 [1]) | inhibition at 1 µM (human PHD2 [2])
28 | CC(c1ccc(C(F)(F)F)cc1)N1CCC(O)=C(C(=O)NCC(=O)O)C1=O (stereo not shown) [Ex. 1-146] | 69% | 70%
29 | O=C(O)CNC(=O)C1=C(O)C2(CC2)CN(Cc2ccc(C(F)(F)F)cc2)C1=O [Ex. 1-147] | 84% | 88%
30 | CC1CC(O)=C(C(=O)NCC(=O)O)C(=O)N1Cc1ccc(Br)cc1 (stereo not shown) [Ex. 1-148] | 78% | 82%
31 | CC1CC(O)=C(C(=O)NCC(=O)O)C(=O)N1Cc1ccc(OC(F)(F)F)cc1 (stereo not shown) [Ex. 1-149] | 74% | 74%
32 | CC1(C)CC(O)=C(C(=O)NCC(=O)O)C(=O)N1Cc1ccc(Br)cc1 [Ex. 1-150] | 63% | 71%
33 | CC1(C)CC(O)=C(C(=O)NCC(=O)O)C(=O)N1Cc1ccc(OC(F)(F)F)cc1 [Ex. 1-151] | 57% | 63%
34 | O=C(O)CNC(=O)C1=C(O)CCN(Cc2ccc3c(c2)OC(F)(F)O3)C1=O [Ex. 1-152] | 82% | 83%
35 | CCC(c1ccc(C(F)(F)F)cc1)N1CCC(O)=C(C(=O)NCC(=O)O)C1=O (stereo not shown) [Ex. 1-153] | 64% | 63%
36 | O=C(O)CNC(=O)C1=C(O)CC2(CCC2)N(Cc2ccc(OC(F)(F)F)cc2)C1=O [Ex. 1-154] | 77% | 81%
37 | O=C(O)CNC(=O)C1=C(O)CC2(CCC2)N(Cc2ccc(Br)cc2)C1=O [Ex. 1-155] | 82% | 83%
38 | O=C(O)CNC(=O)C1=C(O)CC2(CCCC2)N(Cc2ccc(C(F)(F)F)cc2)C1=O [Ex. 1-156] | 70% | 80%
39 | CC1(C)CC(O)=C(C(=O)NCC(=O)O)C(=O)N1Cc1ccc(Cl)cc1 [Ex. 1-157] | 67% | 73%
40 | CC1(C)CC(O)=C(C(=O)NCC(=O)O)C(=O)N1Cc1ccc(Cl)c(Cl)c1 [Ex. 1-158] | 67% | 75%
41 | O=C(O)CNC(=O)C1=C(O)CCN(Cc2ccc(OC(F)(F)F)c(Cl)c2)C1=O [Ex. 1-159] | 78% | 90%
42 | O=C(O)CNC(=O)C1=C(O)CCN(Cc2ccc(Cl)c(OC(F)(F)F)c2)C1=O [Ex. 1-160] | 74% | 85%
43 | CC1(C)CC(O)=C(C(=O)NCC(=O)O)C(=O)N1Cc1ccc(OC(F)F)cc1 [Ex. 1-161] | 62% | 62%
44 | CC1CN(Cc2ccc(Cl)cc2)C(=O)C(C(=O)NCC(=O)O)=C1O (stereo not shown) [Ex. 1-162] | 78% | 77%
45 | CC1CN(Cc2ccc(Cl)c(Cl)c2)C(=O)C(C(=O)NCC(=O)O)=C1O (stereo not shown) [Ex. 1-163] | 84% | 90%
46 | CC1(C)CC(O)=C(C(=O)NCC(=O)O)C(=O)N1Cc1ccc(OC(F)(F)F)c(Cl)c1 [Ex. 1-164] | 49% | 66%
47 | CC1(C)CC(O)=C(C(=O)NCC(=O)O)C(=O)N1Cc1ccc(Cl)c(OC(F)(F)F)c1 [Ex. 1-165] | 42% | 55%
48 | O=C(O)CNC(=O)C1=C(O)CC2(CCC2)N(Cc2ccc(Cl)cc2)C1=O [Ex. 1-166] | 82% | 86%
49 | O=C(O)CNC(=O)C1=C(O)CC2(CCC2)N(Cc2ccc(Cl)c(Cl)c2)C1=O [Ex. 1-167] | 80% | 88%
50 | COc1ccc(CN2C(=O)C(C(=O)NCC(=O)O)=C(O)CC2(C)C)cc1OC(F)(F)F [Ex. 1-169] | 28% | 43%
51 | Cc1cc(CN2C(=O)C(C(=O)NCC(=O)O)=C(O)CC2(C)C)cc(C)c1OC(F)F [Ex. 1-170] | 35% | 45%
52 | CC1CC(O)=C(C(=O)NCC(=O)O)C(=O)N1Cc1ccc(Cl)cc1 (stereo not shown) [Ex. 1-171] | 81% | 82%
53 | CC1CC(O)=C(C(=O)NCC(=O)O)C(=O)N1Cc1ccc(Cl)c(Cl)c1 (stereo not shown) [Ex. 1-172] | 77% | 79%

Source: patent publication US9422240B2, “Partially saturated nitrogen-containing heterocyclic compound” (TAISHO PHARMACEUTICAL CO., LTD, priority 2012, dated 2016)
